Assay results from patent US4374841A, “Pyridoxine derivatives, and use in therapeutics” (S. A. Labaz N.V., priority 1980, dated 1983).
Where two headings read alike, the source gives them in different places.

What was measured:
mice = assay: Central depressant properties (passage of mice through a light ray); assay type: in vivo; settings: Mus musculus, po, 0.5 h, intragastric, 30 minutes after administration, recorded over 15 minutes, dose with depressant action in 50% of the animals, read-out: AD50 (the source's name)
Protocol: D. Central depressant properties
Thirty minutes after the intragastric administration of a dose of the compound to be studied, batches of mice were placed in a container through which a ray of light was projected. By means of a photoelectric cell, a record was made of the number of animals passing through the light ray over a period of 15 minutes. The same test was performed with control animals.
The AD50 was then calculated i.e. the dose of the compound under study which provoked a depressant action in 50% of the animals.

α-receptors = assay: Antiadrenergic properties: anti-α effect (reduction of epinephrine-increased blood-pressure); assay type: in vivo, dog; settings: intravenous
Protocol: (§1) The purpose of this test was to determine the capacity of the compounds under study to reduce epinephrine-increased blood-pressure (anti-α effect) and epinephrine-accelerated heart-rate (anti-β effect) in the dog previously anaesthetized with pentobarbital (30 mg/kg) and atropinized (1 mg/kg).
After that, the dose of epinephrine so determined was administered followed by a dose, by intravenous route, of the compound to be studied. The percentage of reduction of hypertension produced by the compound under study in comparison with the hypertension previously obtained (about 100 mm.Hg) was then registered.
(§2) In both cases, the results were expressed as follows: […]
(§3) + for a <50%-reduction of the increase in pressure or cardiac frequency
(§4) ++ for a ≥50-reduction of the increase in pressure or cardiac frequency
(§5) +++ for the almost complete supression of the increase in pressure or cardiac frequency.

anaesthetized dog [1] = assay: Reserpine-like properties (cardiac frequency and contractility of the myocardium); assay type: in vivo; settings: for change in vivo at 1 mg/kg: Canis lupus familiaris, intravenous, anaesthetized dog
Text: C. Reserpine-like properties
the increase in cardiac frequency
the increase of (dP/dt) at its maximum, i.e. the increase of the maximum of the derivative of the left ventricular pressure in relation to time.
This derivative thus represented an index of contractility.

anaesthetized dog [2] = assay: Hypotension in the anaesthetized dog; assay type: in vivo; settings: 2 mg/kg, intravenous
Protocol: (a) Hypotension in the anaesthetized dog
The hypotensive effect was determined for at least one hour after the intravenous injection of a dose of the compound under study in the dog previously anaesthetized with pentobarbital (30 mg/kg) and atropinized (1 mg/kg).
Arterial pression was registered on a femoral artery.
The results were expressed as follows: […]
++ for a lasting reduction of about 30% in arterial pressure
+ for a short-lived reduction of about 20% in arterial pressure.

β-receptors = assay: Antiadrenergic properties: anti-β effect (reduction of epinephrine-accelerated heart-rate); assay type: in vivo; settings: 10 mg/kg, intravenous, anaesthetized atropinized dog
Protocol: as §1
The percentage of reduction of the epinephrine-induced acceleration of heart-rate obtained by means of the compounds under study in comparison with the tachycardia previously measured (about 70 beats) was then registered.
as §2, §3, §4, §5

Okamoto rat = assay: Hypotension in the Okamoto rat; assay type: in vivo
Protocol: (b) Hypotension in the Okamoto rat
In this trial, the rats used belonged to a race specifically bred to produce animals having high blood-pressure. The arterial pressure of these rats was determined (about 180 mm.Hg) at the beginning of the test and a dose of the compound to be studied was then administered.
The decrease in arterial pressure was registered every hour for 6 hours after the administration of the compound in question.

Acute toxicity in mice = settings: mouse, in vivo
Text: (§6) Acute toxicity tests were also undertaken in rats and mice with compounds of the invention.

Acute toxicity in rats = assay type: in vivo; settings: rat, in vivo
Text: as §6

rats = assay: Acute toxicity in rats; assay type: in vivo; settings: intragastric route, fumarate form
Text: as §6

[3] = ip, intraperitoneal route, sesquioxalate form
[4] = po, intragastric route, sesquioxalate form

## Cc1ccccc1OCCNCC(O)COc1c(C)ncc(CO)c1CO (stereo not shown) [Compound A, 4,5-dihydroxymethyl-3-[2-hydroxy-3-(2-methyl-phenoxyethylamino)-propoxy]-2-methyl-pyridine]
mice
  ED50: 50 mg/kg
α-receptors; 10 mg/kg, anaesthetized atropinized dog, epinephrine
  Anti-α effect: +++
α-receptors; lowest active dose, dog, sesquioxalate
  α-antiadrenergic properties at a dose as low as: 2 mg/kg
Anaesthetized dog [1]; (dP/dt) maximum, read-out: increase in the contractility of the myocardium
  change in vivo at 1 mg/kg: 10 to 30%
Anaesthetized dog [1]; read-out: increase in cardiac frequency
  change in vivo at 1 mg/kg: 10 to 30%
Anaesthetized dog [1]; dog having previously received reserpine
  effects on cardiac frequency and contractility after reserpine: suppressed
Anaesthetized dog [2]
  Decrease in arterial pressure: ++ (for a lasting reduction of about 30% in arterial pressure)
β-receptors
  Anti-β effect: + (for a <50%-reduction of the increase in pressure or cardiac frequency)
Okamoto rat; 25 mg/kg, oral route, acute treatment, initial about 180 mm.Hg
  maximum decrease (arterial pressure): 21 mm.Hg
Okamoto rat; chronic treatment, involving one single administration, read-out: found to be active at a dose as low as
  minimal effective dose: 50 mg/kg
Okamoto rat; oral route, acute treatment
  activity in acute treatment (ranking): the most active in acute treatment
Okamoto rat; oral route, acute treatment, read-out: provoked hypotension at a dose as low as
  minimal effective dose: 25 mg/kg

## Cc1ccccc1OCCNCC(O)COc1c(C)ncc(CO)c1CO (stereo not shown) [drawing 41, 4,5-Dihydroxymethyl-3-[2-hydroxy-3-(2-methyl-phenoxyethylamino)-propoxy]-2-methyl-pyridine]
Acute toxicity in mice; intravenous route, sesquioxalate form
  LD50: 118 mg/kg
Acute toxicity in mice; [3]
  LD50: 290 mg/kg
Acute toxicity in mice; [4]
  LD50: 700 mg/kg
Acute toxicity in rats; [3]
  LD50: 320 mg/kg
Acute toxicity in rats; iv, fumarate form
  LD50: 200 mg/kg
Acute toxicity in rats; iv, sesquioxalate form
  LD50: 170 mg/kg
Acute toxicity in rats; [4]
  LD50: 2200 mg/kg
rats
  LD0: > 2500 mg/kg

## COc1ccccc1OCCNCC(O)COc1c(C)ncc(CO)c1CO (stereo not shown) [drawing 42]
Acute toxicity in mice; po, intragastric route (salt form not stated)
  LD50: > 5000 mg/kg
Acute toxicity in rats; iv, intravenous route (salt form not stated)
  LD50: 245 mg/kg
